Literature values in patent US8642581B1, “Compositions and methods for the production of S-adenosylmethionine within the body” (priority 2000, dated 2014).

Legend:
[1] = 35° C. (95° F.)
Depressive symptoms = conditions: 195 patients, 400 mg SAMe parenterally for 15 days
[2] = tested on: beta-adrenergic binding sites; conditions: rats, chronic administration
brain membrane = conditions: rats, chronic administration

time SAMe remains stable [1]: 8 to 10 h
SMILES: C[S+](CC[C@H](N)C(=O)O)C[C@H]1O[C@@H](n2cnc3c(N)ncnc32)[C@H](O)[C@@H]1O (some centres unmarked) [SAMe, S-adenosylmethionine]
serious adverse events (Depressive symptoms): no serious adverse events were reported | Depressive symptoms (Depressive symptoms; after 7 and 15 days): remitted after both 7 and 15 days | age-related decrease in beta-adrenergic binding sites [2]: prevents | age-related decrease of brain membrane fluidity (brain membrane): prevents
